{"source": "patent US7589185B2", "about": "“Nucleotide sequences and protein(s) encoded by such nucleotides for modulation of apoptosis” (Universita' degli Studi di Catanzaro “Magna Graecia”, priority 2001, dated 2009)", "key": {"[1]": {"tested_on": "Air protein", "test": "Intracellular expression of Air protein in primary B-CLL cells, immunofluorescence flow cytometry", "assay_type": "cell-based, human", "description": "Presence of the Protein in primary ex vivo cells—We investigated whether our protein was present in primary ex vivo cells. (Procedures and conditions for isolation and culturing of primary cells are described in ref. 8-10). To this purpose, we first analysed three samples of B chronic lymphocytic leukemia (B-CLL) cells, since these cells can be considered a primary counterpart of the cell line that we initially studied. To detect the protein, we perform intracellular immuno-fluorescence experiments. 1−2×10^6 cells were fixed and permeabilised with 250 microl of Cytofix/Cytoperm (Pharmingen) solution, then incubated with the specific anti-Air rabbit polyclonal or a control rabbit antibody, followed by washing with Perm/Wash (Pharmingen) and a second incubation with fluorescein isothiocyanate (FITC)-conjugated goat anti-rabbit antibody. Then the cells were analysed with a FACScan (Becton Dickinson) flow cytometer. These experiments allowed to detect the presence of the protein in the three analysed B-CLL samples (FIGS. 7, 8 and 9).\nFIG. 7—Intracellular expression of Air protein in cells from a patient affected by B-CLL. 2×10^6/ml cells obtained from patient's peripheral blood by centrifugation through Ficoll-Hypaque were incubated 24 h at 37° C. in a 5% CO2 atmosphere in the absence or presence of 2 mM DEM, fixed and permeabilised with 250 microl of Cytofix/Cytoperm (Pharmingen) solution. The cells were then incubated with the specific anti-Air rabbit polyclonal or a control rabbit antibody, followed by washing with Perm/Wash (Pharmingen) and a second incubation with fluorescein isothiocyanate (FITC)-conjugated goat anti-rabbit antibody. Then the cells were analysed with a FACScan (Becton Dickinson) flow cytometer. A panel: unstimulated cells. B panel: DEM-stimulated cells. Protein expression is detected in the 33.8% of the cells in basal conditions and in the 47.6% of the cells incubated with DEM.\nFIG. 8—Intracellular expression of Air protein in cells from a patient affected by B-CLL. 2×10^6/ml cells obtained from patient's peripheral blood by centrifugation through Ficoll-Hypaque were incubated 24 h at 37° C. in a 5% CO2 atmosphere in the absence or presence of 2 mM DEM or 20 microM 2-Methoxymethylestradiol (2-ME), fixed and permeabilised with 250 microl of Cytofix/Cytoperm (Pharmingen) solution. The cells were then incubated with the specific anti-Air rabbit polyclonal or a control rabbit antibody, followed by washing with Perm/Wash (Pharmingen) and a second incubation with fluoresceinisothiocyanate (FITC)-conjugated goat anti-rabbit antibody. Then the cells were analysed with a FACScan (Becton Dickinson) flow cytometer. A panel: unstimulated cells. B panel: DEM-stimulated cells. C panel: cells stimulated with the drug 2-Methoxymethylestradiol (2-ME). Protein expression is detected in the 17.3% of the cells in basal conditions, in the 55.5% of DEM-stimulated cells and in the 53.1% of 2-ME-stimulated cells.\nFIG. 9—Intracellular expression of Air protein in a patient affected by B-CLL. […] Then the cells were analysed with a FACScan (Becton Dickinson) flow cytometer. […] Protein expression is detected in the 27.2% of the cells in basal conditions, in the 28.3% of DEM-stimulated cells and in the 23.1% of 2-ME-stimulated cells."}, "[2]": {"tested_on": "SH-SY5Y neuroblastoma cells", "test": "Apoptosis of SH-SY5Y neuroblastoma cells induced by DEM, propidium iodide flow cytometry", "assay_type": "cell-based, human", "settings": "2 or 6 mM DEM, oligonucleotides 7 microM, 12 or 16 h (FIGS. 3-6)"}}}
{"compound": "COCc1cc2c(cc1O)CC[C@@H]1[C@@H]2CC[C@]2(C)[C@@H](O)CC[C@@H]12", "note": "[2-ME, 2-Methoxymethylestradiol]", "values": [{"measurement": "cells in which Air protein expression is detected", "setting": "[1]; B-CLL patient of FIG. 8, 20 microM 2-ME, 24 h (basal 17.3%)", "value": 53.1, "unit": "%"}, {"measurement": "cells in which Air protein expression is detected", "setting": "[1]; B-CLL patient of FIG. 9, 20 microM 2-ME, 24 h (basal 27.2%)", "value": 23.1, "unit": "%"}]}
{"compound": "CCOC(=O)/C=C\\C(=O)OCC", "note": "[DEM, diethylmaleate]", "values": [{"measurement": "cells in which Air protein expression is detected", "setting": "[1]; B-CLL patient of FIG. 7, 2 mM DEM, 24 h (basal 33.8%)", "value": 47.6, "unit": "%"}, {"measurement": "cells in which Air protein expression is detected", "setting": "[1]; B-CLL patient of FIG. 8, 2 mM DEM, 24 h (basal 17.3%)", "value": 55.5, "unit": "%"}, {"measurement": "cells in which Air protein expression is detected", "setting": "[1]; B-CLL patient of FIG. 9, 2 mM DEM, 24 h (basal 27.2%)", "value": 28.3, "unit": "%"}]}
{"compound": "SEQ ID NO 6: antisense phosphorothioate oligonucleotide directed at blocking Air synthesis (CTTAGTCTTATACATTTTTTTAAAATC; all phosphorothioate, sugars by position and methylation of C not given here)", "values": [{"measurement": "modulation of apoptosis", "setting": "[2]", "value": "blocking it"}]}
{"compound": "SEQ ID NO 7: antisense phosphorothioate oligonucleotide directed at blocking Air synthesis (ATCTTAGTCTTATACATTTTTTTAAA; all phosphorothioate, sugars by position and methylation of C not given here)", "values": [{"measurement": "modulation of apoptosis", "setting": "[2]", "value": "blocking it"}]}
{"compound": "SEQ ID NO 8: antisense phosphorothioate oligonucleotide directed at blocking Air synthesis (CTTTCTATCTTCATTTTATTTTTCC; all phosphorothioate, sugars by position and methylation of C not given here)", "values": [{"measurement": "modulation of apoptosis", "setting": "[2]", "value": "blocking it"}]}
